{
  "source": "patent US11628198B2",
  "about": "“Methods for prevention and treatment of acute renal injury” (Cornell University, priority 2008, dated 2023)",
  "assay_type_in_all_cases": "in vivo, rat",
  "key": {"[1]": {"system": "ATP content in renal tissue", "test": "I/R model: ATP content assay of kidney tissue", "procedure": "Sprague Dawley rats (250˜300 g) were assigned to four groups: (1) sham surgery group without I/R; (2) I/R+saline vehicle treatment; (3) I/R+SS-20 treatment; (4) I/R+SS-31 treatment. Each experimental group consisted of 8 rats. SS-20 and SS-31 (3 mg/kg, dissolved in saline) were administered to rats 30 min before ischemia and immediately before onset of reperfusion. The control rats were given saline alone on the same schedule.\nRats were anesthetized with a mixture of ketamine (90 mg/kg, i.p.) and xylazine (4 mg/kg, i.p.). The left renal vascular pedicle was occluded temporarily using a micro-clamp for 30 or 45 min. At the end of the ischemic period, reperfusion was established by removing of the clamp. At that time, the contralateral right kidney was removed. After 24 h reperfusion, animals were sacrificed and blood samples were obtained by cardiac puncture. Renal function was determined by blood urea nitrogen (BUN) and serum creatinine (BioAssay Systems DIUR-500 and DICT-500).\nATP Content Assay: The kidney tissue was immediately put into 10 ml 5% trichloroacetic acid with 10 mM DTT, 2 mM EDTA and cut into small pieces. The tissue was homogenized on ice, incubated for another 10 min, centrifuged for 10 min at 2000×g, and neutralized with 10N KOH to pH 7.6. After centrifugation for 10 min at 2000×g, aliquots of the resulting supernatant were stored at −80° C. ATP was measured by bioluminescence (ATP bioluminescent kit, Sigma, MO, USA)."}, "[2]": {"system": "contrast induced nephropathy in diabetic animal model", "test": "CIN in diabetic (HFD/STZ) rats with iohexol, Experiment 2", "procedure": "In this experiment, 30 SD rats were fed with high fat diet for 6 weeks, followed by the injection with low dose streptozotocin (30 mg/kg). After 9 more weeks, the rats were used in the contrast induced nephropathy study. The animals were divided into 2 groups with the doses, dosing schedules and study protocol as follows. On day 0, the weight of the animals was determined and glucose and serum samples were collected. On day 1, Scr was assayed and spot urine collection performed. On days 2 and 3, 3 mg/kg SS-31 (Group 1) or a vehicle (Group 2) was administered s.c. 30 min prior to the dye injection (6 mL/kg i.v. tail vein). SS-31 (Group 1) or PBS (Group 2) administration was repeated at 2 h, 1 day, 2, days, 3 days, 4 days, and 5 day post-dye administration. On day 8, serum and urine samples were collected and the rats were euthaniszed to harvest kidneys and vital organs.\n(§1) Renal function: Renal function was assessed by determining serum and urinary creatinine using Jiancheng Cr kit (Nanjing, P.R.C) at baseline, 24 h, 3 day and 6 days following contrast dye (Iohexol) administration. The creatinine clearance was calculated based on the Scr, Ucr and Urinary volume. Samples were analyzed by students t-test and differences were considered significant at p<0.05."}, "[3]": {"system": "contrast induced nephropathy in diabetic animal model", "test": "CIN in diabetic (HFD/STZ) rats with iohexol, Experiment 3", "conditions": "individual rats of Group C", "procedure": "In this experiment, 20 SD rats were fed with high fat diet for 6 weeks, followed by the injection with low dose streptozotocin (35 mg/kg). After 15 more weeks, the rats were subjected to contrast induced nephropathy study. In addition, we included a normal control group was included in which 9 rats from the same batch on regular chow diet were subjected to the same protocol.\n[…] The creatinine clearance was calculated based on the Scr, Ucr and urinary volume. Samples were analyzed by students t-test and differences were considered significant at p<0.05."}, "[4]": {"system": "CIN in glycerol-induced rhabdomyolysis animal model", "test": "CIN in glycerol-induced rhabdomyolysis model, Experiment 3", "procedure": "SD rats with body weight of 300-400 grams were dehydrated for 24 h followed by i.m. injection with 25% glycerol solution (v/v) at the dose of 10 ml/kg. Twenty-four hours (24 h) later, the rats were grouped and subjected to contrast induced nephropathy study protocol. Eighteen SD rats with body weight of 350-400 g were randomized into three groups with the doses, dosing schedules and study protocol presented in FIG. 27. The effects of SS-31 on ARI can be examined by comparing the renal functions in animals from group A with that from group B.\nas §1, with “h after dehydration” for “h, 3 day”, “48 h post the” for “6 days following”, “dye” for “dye (Iohexol)”, “volume. Urinary protein concentration was determined by Bradford Protein Assay kit (Sigma, U.S.A.).” for “volume.”"}},
  "note": "Where “and” joins values, the source holds several entries; their conditions need not be identical. Identical values can stand only once.",
  "data": [
    {"substance": "D-Arg-2′6′Dmt-Lys-Phe-NH2 [SS-31]", "values": [
      {"measurement": "ATP content in renal tissue", "setting": "[1]; 1 h reperfusion following 45 min ischemia, vs vehicle", "result": "significantly higher"},
      {"measurement": "ATP content in renal tissue", "setting": "[1]; end of 15 min ischemia", "result": "not altered"},
      {"measurement": "GFR", "setting": "[2]; Baseline", "result": "159.2±25.1", "unit": "μl/min/100 g"},
      {"measurement": "Scr", "setting": "[2]; Baseline", "result": "214.6 ± 15.4", "unit": "µmol/L"},
      {"measurement": "U protein", "setting": "[2]; Baseline", "result": "5.4 ± 1.1", "unit": "mg/4 h"},
      {"measurement": "U vol", "setting": "[2]; Baseline", "result": "18.1 ± 4.4", "unit": "mL"},
      {"measurement": "Ucr", "setting": "[2]; Baseline", "result": "4182.5 ± 699.8", "unit": "µmol/L"},
      {"measurement": "GFR", "setting": "[2]; T1 (24 h post dye)", "result": "159.9±9", "unit": "μl/min/100 g"},
      {"measurement": "Scr", "setting": "[2]; T1 (24 h post dye)", "result": "168.6 ± 21.9", "unit": "µmol/L"},
      {"measurement": "U protein", "setting": "[2]; T1 (24 h post dye)", "result": "3.6 ± 0.8", "unit": "mg/4 h"},
      {"measurement": "U vol", "setting": "[2]; T1 (24 h post dye)", "result": "15.2 ± 4.3", "unit": "mL"},
      {"measurement": "Ucr", "setting": "[2]; T1 (24 h post dye)", "result": "4488.9 ± 861.6", "unit": "µmol/L"},
      {"measurement": "GFR", "setting": "[2]; T2 (3 day post dye)", "result": "100.9 ± 16.7", "unit": "μl/min/100 g"},
      {"measurement": "Scr", "setting": "[2]; T2 (3 day post dye)", "result": "236.2 ± 26.6", "unit": "µmol/L"},
      {"measurement": "U protein", "setting": "[2]; T2 (3 day post dye)", "result": "4.3 ± 0.9", "unit": "mg/4 h"},
      {"measurement": "U vol", "setting": "[2]; T2 (3 day post dye)", "result": "12.8 ± 3.6", "unit": "mL"},
      {"measurement": "Ucr", "setting": "[2]; T2 (3 day post dye)", "result": "4744.8 ± 1350.6", "unit": "µmol/L"},
      {"measurement": "GFR", "setting": "[2]; T3 (6 days post dye)", "result": "121.5 ± 9.1", "unit": "μl/min/100 g"},
      {"measurement": "Scr", "setting": "[2]; T3 (6 days post dye)", "result": "175.3 ± 25.9", "unit": "µmol/L"},
      {"measurement": "U protein", "setting": "[2]; T3 (6 days post dye)", "result": "2.4 ± 0.4", "unit": "mg/4 h"},
      {"measurement": "U vol", "setting": "[2]; T3 (6 days post dye)", "result": "9.6 ± 2.3", "unit": "mL"},
      {"measurement": "Ucr", "setting": "[2]; T3 (6 days post dye)", "result": "4030.7 ± 620", "unit": "µmol/L"},
      {"measurement": "Scr T22h", "setting": "[3]; T22h post dye", "result": "25 μM (2×) and 26 μM and 24 μM and 27 μM and 28 μM and 30 μM and 35 μM and 19 μM"},
      {"measurement": "Scr % change T22", "setting": "[3]; T22h vs Tb", "result": "0% and 4% and −11% and 9% and −7% and 17% and 20% and 40% and −34%"},
      {"measurement": "Scr Tb", "setting": "[3]; baseline", "result": "25 μM (4×) and 27 μM and 23 μM and 29 μM (2×) and 24 μM"},
      {"measurement": "PAS staining of kidney", "setting": "[4]; glycerin, dye", "result": "intact brush borders, normal glomeruli and minimum protein cast in the tubular cells"},
      {"measurement": "urine protein level over time", "setting": "[4]; vs vehicle group", "result": "recovered faster than the vehicle group"}
    ]}
  ]
}
